Results from ChEMBL document CHEMBL1128334, “X-ray crystal structure, partitioning behavior, and molecular modeling study of piracetam-type nootropics: insights into the pharmacophore” (J Med Chem, 1995).

Assay: Partition coefficient (logP)
Type: physicochemical
Details: octanol/water

Compound | logP (read-out: logP) | logP
O=C1NCC[C@@H]2CNC(=O)[C@H]12 | -1.95 | 
CCOC(=O)C1CNC(=O)CC1C(=O)OCC (stereo in doubt; 7) |  | 0.17
O=C1CCCN1 [2-PYRROLIDONE] | -0.71 | 
O=C1CCCCN1 | -0.47 | 
O=C1CC2C(=O)NCC2CN1 (stereo in doubt; 2) |  | -2.11
O=C1CC2C(=O)NCC2CN1 (stereo in doubt; 3) |  | -2
O=C1CCC2CCC(=O)N12 [ROLZIRACETAM] | -1.11 | 
CCOC(=O)C1CNC(=O)CC1C(=O)OCC (stereo in doubt; 6) |  | -0.03
NC(=O)CN1CCCC1=O [PIRACETAM] | -1.54 | 
